Laboratory results from patent publication US5164196A (priority 1990, dated 1992).

Target: crotoxin complex (1:1 complex of crotoxin A and crotoxin B) from Crotalus durissus terrificus venom (Crotalus durissus terrificus, UniProt P0CAS2)
Format: biochemical

crotoxin complex (1:1 complex of crotoxin A and crotoxin B) from Crotalus durissus terrificus venom, sequence (P0CAS2 whole entry, looked up, one chain of several): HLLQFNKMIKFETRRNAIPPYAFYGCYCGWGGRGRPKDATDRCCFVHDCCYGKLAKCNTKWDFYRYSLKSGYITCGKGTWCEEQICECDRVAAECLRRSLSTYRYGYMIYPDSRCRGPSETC

## O=C(CBr)c1ccc(Br)cc1 [p-bromophenacylbromide]
  reaction with p-bromophenacyl bromide: does not react
